According to patent publication US20240245677A1, “SELECTED COMPOUNDS FOR TARGETED DEGRADATION OF BRD9” (C4 THERAPEUTICS, INC., priority 2021, published 2024):

Molecular target: hERG potassium channels (Homo sapiens, UniProt Q12809)
Experiment: cell-based
Experimental: The effects of Compound 1 on the hERG potassium channels were evaluated using the automated patch clamp method (SyncroPatch® 384PE, Nanion Technologies GmbH, Munich, Germany).
CHO cells stably expressing hERG potassium channels (Sophion Bioscience, Inc. Bedford, MA, USA) were used for this test. The cells were cultured in a humidified and air-controlled (5% CO2) incubator at 37° C. The CHO hERG cell culture medium was 500 mL Ham's F-12 medium (Catalog No. 31765035, Invitrogen, Waltham, MA, USA), 50 mL HyClone™ Fetal Bovine Serum (Catalog No. SV30087.03, Cytiva, Marlborough, MA, USA), 1 mL Geneticin™ (G418 Sulfate, 50 mg/mL)) (Catalog No. 10131027, Invitrogen, Waltham, MA, USA), and 1 mL Hygromycin B (50 mg/mL) (Catalog No. 10687010, Invitrogen, Waltham, MA, USA).
The CHO cells were at least two days after plating and more than 75% confluent were used. Before testing, cells were harvested using TrypLE™ and resuspended in the physiological solution at the room temperature.
The solutions in Table 9 were used for the electrophysiological recordings. The physiological solution and external solution were prepared at least one month prior to the experiment. The intracellular solution was prepared in batches, aliquoted, and stored at 4° C. until use.
The stock solutions were further diluted into external solution to achieve final concentrations for testing. A visual check for precipitation was conducted before testing. Final DMSO concentration in external solution was not more than 0.30% for the test compounds.
The voltage command protocol started from a holding potential of −80 mV. Then, the voltage was first stepped to −50 mV for 80 ms for leak subtraction, and then stepped to +20 mV for 4,800 ms to open hERG channels. After that, the voltage was stepped back down to −50 mV for 5,000 ms, causing a “rebound” or tail current, which was measured and collected for data analysis. Finally, the voltage was stepped back to the holding potential of −80 mV for 1,000 ms. This voltage command protocol was repeated every 20,000 msec, and performed continuously during the test of vehicle control and test compounds.
This SyncroPatch hERG assay was conducted at room temperature. The Setup, Prime Chip, Catch and Seal Cells, Amplifier Settings, Voltage and Application Protocols were established with […] (Nanion Technologies GmbH, Munich, Germany). One addition of 40 μL of vehicle was applied, followed by a baseline period of 300 s. Then 40 μL doses of test compounds were added. The exposure of test compound at each concentration was no less than 300 s. The recording for the whole process passed quality control or the well was abandoned and the compound was retested, all automatically set by PatchControl (Nanion Technologies, Munich, Germany). Five concentrations (0.30 μM, 1.00 μM, 3.00 μM, 10.00 μM and 30.00 μM) were tested for each compound. A minimum of 2 replicates per concentration were obtained.
Data analysis was carried out using DataControl® (Nanion Technologies GmbH, Munich, Germany), EXCEL 2013 (Microsoft Corporation, Redmond, WA, USA) and GraphPad Prism 5.0 (GraphPad Software, LLC, San Diego, CA, USA).
Within each recording well, percent of control values were calculated for each test compound concentration current response based on peak current in presence of reference control (current response/peak current)×100%. The Dose-Response curves were fit to the standard Hill equation as shown below: […]
where X is the logarithm of concentration, Ipost cpd/Ipre cpd is the normalized peak current amplitude, Top is 1, and Bottom is equal to 0. Curve-fitting and IC50 calculations were performed by GraphPad Prism 5.0.

Sequence of hERG potassium channels (Q12809 whole entry): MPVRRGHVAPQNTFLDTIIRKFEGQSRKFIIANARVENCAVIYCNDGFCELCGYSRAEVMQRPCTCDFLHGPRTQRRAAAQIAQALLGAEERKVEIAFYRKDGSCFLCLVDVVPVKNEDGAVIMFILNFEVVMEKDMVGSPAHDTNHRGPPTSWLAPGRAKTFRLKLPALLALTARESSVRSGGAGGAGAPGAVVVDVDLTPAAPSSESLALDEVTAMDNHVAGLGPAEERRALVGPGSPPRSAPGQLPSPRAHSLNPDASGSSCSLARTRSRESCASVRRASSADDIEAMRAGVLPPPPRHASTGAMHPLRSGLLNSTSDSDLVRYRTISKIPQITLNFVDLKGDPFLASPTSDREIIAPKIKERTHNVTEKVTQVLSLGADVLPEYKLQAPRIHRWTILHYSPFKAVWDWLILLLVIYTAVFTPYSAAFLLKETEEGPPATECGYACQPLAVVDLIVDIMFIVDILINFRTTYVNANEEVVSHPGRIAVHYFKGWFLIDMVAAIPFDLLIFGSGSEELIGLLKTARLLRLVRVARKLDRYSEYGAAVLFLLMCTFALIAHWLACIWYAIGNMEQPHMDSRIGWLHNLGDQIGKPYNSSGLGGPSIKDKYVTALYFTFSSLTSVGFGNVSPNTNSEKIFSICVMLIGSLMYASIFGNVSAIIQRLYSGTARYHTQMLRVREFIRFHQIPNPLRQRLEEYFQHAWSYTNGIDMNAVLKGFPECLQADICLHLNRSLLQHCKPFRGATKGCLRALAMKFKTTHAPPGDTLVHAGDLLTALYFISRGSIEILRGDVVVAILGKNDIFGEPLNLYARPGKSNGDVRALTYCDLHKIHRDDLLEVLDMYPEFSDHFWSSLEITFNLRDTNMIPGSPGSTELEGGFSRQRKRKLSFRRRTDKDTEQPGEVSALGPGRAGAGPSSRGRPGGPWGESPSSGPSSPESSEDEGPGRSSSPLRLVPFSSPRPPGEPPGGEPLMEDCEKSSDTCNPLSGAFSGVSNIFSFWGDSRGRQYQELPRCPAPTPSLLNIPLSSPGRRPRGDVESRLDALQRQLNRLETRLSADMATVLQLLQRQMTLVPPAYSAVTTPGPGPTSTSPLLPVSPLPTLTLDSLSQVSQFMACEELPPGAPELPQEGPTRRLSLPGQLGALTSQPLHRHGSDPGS

Structure (SMILES): COc1cc(-c2cn(C)c(=O)c(C)c2C)cc(OC)c1CN1CC[C@H](N2CCN(c3ccc(N[C@H]4CCC(=O)NC4=O)cc3F)CC2)C(F)(F)C1 [Compound 1, (S)-3-((4-(4-((S)-1-(2,6-dimethoxy-4-(1,4,5-trimethyl-6-oxo-1,6-dihydropyridin-3-yl)benzyl)-3,3-difluoropiperidin-4-yl)piperazin-1-yl)-3-fluorophenyl)amino)-piperidine-2,6-dione]
- IC50: 2.91 µM
- HillSlope (human): 1.26
- POI (%) (human, 0.3 µM): 12.42%
- POI (%) (human, 1 µM): 14.61%
- POI (%) (human, 3 µM): 22.59%
- POI (%) (human, 10 µM): 19.49%
- POI (%) (human, 30 µM): 21.92%
